Converted amounts (≈) assume the structure as drawn. Read-outs that look alike come from different tables or passages of the source.
Tests used:
S. aureus ATCC 29213 [1] = assay: Supplemented disc diffusion assay; format: cell-based, Staphylococcus aureus; conditions: for zone of inhibition at 200 µg/disc: Staphylococcus aureus, ATCC29213, 24 h
Experimental: (§1) The staphylococci and enterococci were cultured and maintained on Mueller-Hinton Medium (agar and broth) at pH 7.2; they were incubated aerobically at 37° C. for 24 hours.
(§2) A sterile paper disc was impregnated with a sample of the test compound and a minimum of 30 minutes allowed for the solvents to evaporate as far as possible. The disc was then placed on an agar plate onto which the test micro-organism had been inoculated. The plate was then incubated under the conditions described above, following which it was examined visually for signs of bacterial growth. […] The diameter of this zone of “inhibition” was measured using a ProtoCOL™ automated zone sizer (Synbiosis, Cambridge, UK).
(§3) Performance under these conditions can provide a more reliable indication of activity on topical application. For assays conducted using S. aureus strains, the supplements were defibrinated horse blood (5% v/v), lipid (Tween™ 80 at 1% v/v) and sodium chloride (100 mM). For those using Propionibacterium spp. strains, the supplements were lipid (Tween™ 80 at 1% v/v) and sodium chloride (100 mM).
(§4) The following experiments all used S. aureus ATCC 29213 as the test organism. MIC, MBC and DDA assays, as described above, were carried out using a range of different benzoquinones and hydroquinones. Supplemented DDA assays, in the presence of salt, lipid and blood, were also conducted.
(§5) For most DDA assays, 200 μg of each compound was loaded onto each disc.

S. aureus ATCC 29213 [2] = assay: MBC assay; format: cell-based, Staphylococcus aureus
Experimental: as §1
(§6) This assay, normally carried out after an MIC assay, determines the minimum concentration of a compound that is lethal to the micro-organism being tested.
(§7) These samples were then individually sub-cultured on non-selective agar medium, under the incubation conditions described above. Following incubation they were examined visually for bacterial growth.
as §4

S. aureus ATCC 29213 [3] = assay: Disc diffusion assay (DDA); format: cell-based, Staphylococcus aureus; conditions: for zone of inhibition at 200 µg/disc: Staphylococcus aureus
Experimental: as §1, §2
(§8) The area of the zone of inhibition was calculated from the measured zone diameter (D) using the formula π(D/2)^2.
as §5

S. aureus ATCC 29213 [4] = assay: MIC assay; format: cell-based, Staphylococcus aureus
Experimental: 1. Staphylococcus aureus—the principal staphylococcal test micro-organism used in these studies was Staphylococcus aureus ATCC 29213. This strain is the one recommended for QC/QA purposes in Minimum Inhibitory Concentration (MIC) assays by the US Clinical and Laboratory Standards Institute (formerly the NCCLS), an FDA-recognised body.
as §1
(§9) This is a standard international method for quantitatively assessing the antimicrobial activity of a compound in a liquid medium. The method used a 96-well microtitre plate, capable of holding about 200 μl of liquid per well. […] The culture media were as described above for the relevant test organisms.
(§10) The wells were inoculated with a liquid suspension of freshly grown micro-organism and incubated under the conditions described above. After incubation, the microtitre plate was examined visually (with the aid of a light box) for cloudiness in each well, which would indicate microbial growth. The MIC value was recorded as the lowest concentration of test compound required to inhibit microbial growth, i.e., the lowest concentration for which the liquid in the well remained clear.
(§11) The assays were conducted in duplicate and included both negative (culture medium only) and positive (culture medium, diluting solvent and inoculum) controls.
as §4

P. acnes NCTC 737 [5] = assay: MBC assay; format: cell-based, Propionibacterium acnes
Experimental: (§12) The Propionibacterium spp organisms were cultured and maintained on Wilkins-Chalgren Anaerobe Medium (agar and broth) at pH 6.0; cultures were incubated anaerobically at 37° C. for 72 hours.
as §6, §7
(§13) MIC, MBC and DDA assays, as described above, were carried out using a range of different benzoquinones and hydroquinones. Supplemented DDA assays, in the presence of salt and lipid, were also conducted.

P. acnes NCTC 737 [6] = assay: Supplemented disc diffusion assay; format: cell-based, Propionibacterium acnes; conditions: for zone of inhibition at 200 µg/disc: Cutibacterium acnes, NCTC737, 72 h
Experimental: as §12, §2, §3, §13, §5

P. acnes NCTC 737 [7] = assay: Disc diffusion assay (DDA); format: cell-based, Propionibacterium acnes; conditions: for DDA (diameter of zone of inhibition): P. acnes NCTC 737, unsupplemented agar, 200 μg per disc (2,6-dimethoxy-p-benzoquinone 100 μg)
Experimental: as §12, §2, §8, §5

P. acnes NCTC 737 [8] = assay: MIC assay; format: cell-based, Propionibacterium acnes
Experimental: 2. Propionibacterium spp.—the principal propionibacterial strain used in these studies was Propionibacterium acnes NCTC 737.
as §12, §9, §10, §11, §13

[9] = S. aureus ATCC 29213, Tween 80 at 1% v/v, 200 μg per disc (thymoquinone 50 μg, 2,6-dimethoxy-p-benzoquinone 100 μg), read-out: DDA + lipid
[10] = S. aureus ATCC 29213, defibrinated horse blood 5% v/v, 200 μg per disc (thymoquinone 50 μg, 2,6-dimethoxy-p-benzoquinone 100 μg), read-out: DDA + blood
[11] = S. aureus ATCC 29213, sodium chloride 100 mM, 200 μg per disc (thymoquinone 50 μg, 2,6-dimethoxy-p-benzoquinone 100 μg), read-out: DDA + salt
[12] = Staphylococcus aureus, ATCC29213, read-out: MBC
[13] = ATCC29213, S. aureus ATCC 29213, unsupplemented agar, 200 μg per disc (thymoquinone 50 μg, 2,6-dimethoxy-p-benzoquinone 100 μg), read-out: DDA (diameter of zone of inhibition)
[14] = Staphylococcus aureus, ATCC29213, S. aureus ATCC 29213, Mueller-Hinton broth pH 7.2, aerobic, 37° C., 24 hours, read-out: MIC
[15] = S. aureus ATCC 29213, unsupplemented agar, 200 μg per disc (thymoquinone 50 μg, 2,6-dimethoxy-p-benzoquinone 100 μg)
[16] = S. aureus ATCC 29213, Mueller-Hinton broth pH 7.2, aerobic, 37° C., 24 hours
[17] = P. acnes NCTC 737, Wilkins-Chalgren broth pH 6.0, anaerobic, 37° C., 72 hours
[18] = S. aureus ATCC 29213, Tween 80 at 1% v/v, 200 μg per disc (thymoquinone 50 μg, 2,6-dimethoxy-p-benzoquinone 100 μg)
[19] = S. aureus ATCC 29213, defibrinated horse blood 5% v/v, 200 μg per disc (thymoquinone 50 μg, 2,6-dimethoxy-p-benzoquinone 100 μg)
[20] = S. aureus ATCC 29213, sodium chloride 100 mM, 200 μg per disc (thymoquinone 50 μg, 2,6-dimethoxy-p-benzoquinone 100 μg)

Structure (SMILES)	MIC/MBC ratio (S. aureus ATCC 29213 [2])	MIC/MBC ratio (P. acnes NCTC 737 [5]; P. acnes NCTC 737)	MBC (S. aureus ATCC 29213 [2])	DDA (diameter of zone of inhibition) (S. aureus ATCC 29213 [3]; [15])	MIC (S. aureus ATCC 29213 [4]; [16])	DDA + lipid (S. aureus ATCC 29213 [1]; [18])	DDA + blood (S. aureus ATCC 29213 [1]; [19])	DDA + salt (S. aureus ATCC 29213 [1]; [20])	other results
Cc1ccc(O)c(O)c1 [4-methylcatechol]	1	–	–	–	–	–	–	–	zone of inhibition at 200 µg/disc (S. aureus ATCC 29213 [1]; [9]): 20 mm; zone of inhibition at 200 µg/disc (S. aureus ATCC 29213 [1]; [10]): 0 mm; zone of inhibition at 200 µg/disc (S. aureus ATCC 29213 [1]; [11]): 20.9 mm; MBC (S. aureus ATCC 29213 [2]; [12]): 31.2 µg/mL (≈ 252 µM); zone of inhibition at 200 µg/disc (S. aureus ATCC 29213 [3]; [13]): 18.3 mm; MIC (S. aureus ATCC 29213 [4]; [14]): 31.2 µg/mL (≈ 252 µM)
O=C1C(Cl)=C(Cl)C(=O)C(Cl)=C1Cl [tetrachloro-p-benzoquinone]	–	0.5	–	–	–	–	–	–	MBC (P. acnes NCTC 737 [5]; Cutibacterium acnes, NCTC737): 62.5 µg/mL (≈ 254 µM); zone of inhibition at 200 µg/disc (P. acnes NCTC 737 [6]; read-out: DDA + lipid): 12.7 mm; zone of inhibition at 200 µg/disc (P. acnes NCTC 737 [6]; read-out: DDA + salt): 18.9 mm; zone of inhibition at 200 µg/disc (P. acnes NCTC 737 [7]; Cutibacterium acnes, NCTC737, read-out: DDA (diameter of zone of inhibition)): 11.6 mm; MIC (P. acnes NCTC 737 [8]; Cutibacterium acnes, NCTC737, 72 h, pH 6): 31.2 µg/mL (≈ 127 µM)
Cc1c(O)ccc(O)c1C [2,3-dimethyl-p-hydroquinone]	1	0.5	7.8 µg/mL (≈ 56.5 µM)	33.41 mm	7.8 µg/mL (≈ 56.5 µM)	–	–	–	DDA (diameter of zone of inhibition) (P. acnes NCTC 737 [7]): 18.75 mm; MIC (P. acnes NCTC 737 [8]; [17]): 7.8 µg/mL (≈ 56.5 µM)
Oc1ccc(O)c(Cl)c1 [2-chloro-p-hydroquinone]	1	–	7.8 µg/mL (≈ 54 µM)	17.54 mm	7.8 µg/mL (≈ 54 µM)	16.81 mm	13.70 mm	19.30 mm	–
Cc1cc(O)ccc1O [2-methyl-p-hydroquinone]	1	0.5	–	25.70 mm	–	–	–	–	MBC (P. acnes NCTC 737 [5]; P. acnes NCTC 737): 125 µg/mL (≈ 1010 µM); DDA + lipid (P. acnes NCTC 737 [6]; P. acnes NCTC 737, Tween 80 at 1% v/v, 200 μg per disc (2,6-dimethoxy-p-benzoquinone 100 μg)): 13.07 mm; DDA + salt (P. acnes NCTC 737 [6]; P. acnes NCTC 737, sodium chloride 100 mM, 200 μg per disc (2,6-dimethoxy-p-benzoquinone 100 μg)): 0.0 mm; DDA (diameter of zone of inhibition) (P. acnes NCTC 737 [7]): 0.0 mm; MIC (P. acnes NCTC 737 [8]; [17]): 62.5 µg/mL (≈ 503 µM)
CC1=C(C)C(=O)C(C)=C(C)C1=O [duroquinone, 2,3,5,6-tetramethyl-p-benzoquinone]	0.5	–	–	–	–	–	–	–	zone of inhibition at 200 µg/disc (S. aureus ATCC 29213 [1]; read-out: DDA + blood): 0 mm; zone of inhibition at 200 µg/disc (S. aureus ATCC 29213 [1]; read-out: DDA + lipid): 16.2 mm; zone of inhibition at 200 µg/disc (S. aureus ATCC 29213 [1]; read-out: DDA + salt): 16.5 mm; MBC (S. aureus ATCC 29213 [2]; Staphylococcus aureus, ATCC29213): 62.5 µg/mL (≈ 381 µM); zone of inhibition at 200 µg/disc (S. aureus ATCC 29213 [3]; ATCC29213, read-out: DDA (diameter of zone of inhibition)): 13.3 mm; MIC (S. aureus ATCC 29213 [4]; Staphylococcus aureus, ATCC29213, 24 h, pH 7.2): 31.2 µg/mL (≈ 190 µM)
Cc1cccc(O)c1O [3-methylcatechol]	1	–	–	–	–	–	–	–	zone of inhibition at 200 µg/disc (S. aureus ATCC 29213 [1]; [9]): 18.7 mm; zone of inhibition at 200 µg/disc (S. aureus ATCC 29213 [1]; [10]): 0 mm; zone of inhibition at 200 µg/disc (S. aureus ATCC 29213 [1]; [11]): 20.2 mm; MBC (S. aureus ATCC 29213 [2]; [12]): 62.5 µg/mL (≈ 503 µM); zone of inhibition at 200 µg/disc (S. aureus ATCC 29213 [3]; [13]): 19.8 mm; MIC (S. aureus ATCC 29213 [4]; [14]): 62.5 µg/mL (≈ 503 µM)
CC(C)(C)c1cc(O)c(C(C)(C)C)cc1O [2,5-di-t-butyl-p-hydroquinone]	1	–	15.6 µg/mL (≈ 70.2 µM)	10.06 mm	15.6 µg/mL (≈ 70.2 µM)	10.58 mm	10.89 mm	11.21 mm	–
Oc1cc(Cl)c(O)c(Cl)c1 [2,6-dichloro-p-hydroquinone]	1	–	31.25 µg/mL (≈ 175 µM)	16.29 mm	31.25 µg/mL (≈ 175 µM)	14.32 mm	11.83 mm	16.19 mm	–
